According to patent US20160264593A1 (priority 2013, published 2016):
Like-named read-outs stand apart in the source and are kept apart here.

Test: Pharmacokinetic study of 157 (and metabolite endothal) in SD rats, iv and po; plasma, liver, brain
Assay type: in vivo
Conditions: for Tmax: read-out: Tmax; for MRT last: read-out: MRT (0-t); for half-life: read-out: T1/2 (converted); for concentration at 2 h / 157 brain concentration: 2 hr
Method: The blood, liver and brain tissue samples were collected at predetermined times from rats. […] Compound were diluted shortly before use in 4% sodium bicarbonate for sterile injection (this is the standard pediatric solution of NaHCO3 with a pH of about 8.5).
Compound 153 was freshly prepared by diluting the drugs shortly before use in 4% sodium bicarbonate for sterile injection (this is the standard pediatric solution of NaHCO3 with a pH of about 8.5). The final concentrations of 153 solutions were 0.25 mg/mL. The 153 solutions were administered via iv or po route at dose volume of 5 ml/kg according to the latest body weight. Compound 157 was freshly prepared by diluting the drugs shortly before use in 4% sodium bicarbonate for sterile injection (this is the standard pediatric solution of NaHCO3 with a pH of about 8.5). The final concentrations of […] solutions were 0.3 mg/mL. The 157 solutions were administered via iv or po route at dose volume of 5 ml/kg according to the latest body weight.
Twelve (12) female SD rats per group were dosed by iv with 153 or 157. The rats were fasted overnight prior to dosing, with free access to water. Foods were withheld for 2 hours post-dose. Blood, liver and brain tissue samples in two animals each group were collected at each time point, within 10% of the scheduled time for each time point. Two extra animals were used for analytic method development.
Blood (>0.3 mL) were collected via aorta abdominalis in anaesthetic animals into tubes containing heparin at 15 min, 1, 2, 6, 10 and 24 hours after iv administration. Liver and brain tissues were collected immediately after animal death. The liver and brain tissues were excised and rinsed with cold saline to avoid blood residual. Upon collection, each sample was placed on ice and the blood samples were subsequently centrifuged (4° C., 11000 rpm, 5 min) to separate plasma. The obtained plasma, liver and brain tissue samples were stored at −70° C. until LC-MS/MS analysis.
Two (2) female SD rats per group were dosed by po with 153 or 157. The rats were fasted overnight prior to dosing, with free access to water. Foods were withheld for 2 hours post-dose. Blood samples (>0.3 mL) were collected via aorta abdominalis in anaesthetic animals into tubes containing heparin at 30 min, 1, 2, 6, 10 and 24 hours after po administration.
To each sample, 30 μL IS-D (for blank samples, 20 μL acetonitrile:water (1:1) was added) and 300 μl acetonitrile was added. The sample mixture was vortexed for approximately 3 min. After centrifugation at 10000 rpm for 5 min at 4° C., 100 μL of the upper layer was transferred to a new tube and added 200 μL 0.4% formic acid in water (pH6.0). The mixture was vortexed for approximately 3 min before injected onto the LC/MS/MS system for analysis.
On the day of the assay, the frozen liver and brain samples were thawed unassisted at room temperature. An about 200 mg weighed sample of each thawed tissue was placed into a plastic tube with water (0.6 mL) to facilitate homogenization. Tissue processing was conducted using a homogenizer for approximately 1 min, 100 μl homogenate was transferred into a fresh Eppendorf tube. To each tube, 50 μL IS-D was added and mixed. Then 500 μl acetonitrile was added and the sample mixture was vortexed for approximately 3 min. After centrifugation at 10000 rpm for 5 min at 4° C., 100 μL of the upper layer was transferred to a new tube and evaporate the supernatant to dryness at 35° C. Reconstitute the residue with 200 μL of 0.4% formic acid in water (pH 6.0), and vortex for 3 min, submit for LC-MS/MS analysis.
Frozen unknown plasma samples were completely thawed at room temperature and vortexed thoroughly. With a pipette, 50 μL of plasma was transferred into a 2.0 mL Eppendorf tube. 50 μL of 0.1N HCl and 800 μL ethyl acetate were added into each sample. The sample mixture was vortexed for approximately 3 min.

[1] = female, Sprague-Dawley (SD), rat, in vivo, iv, 1.5 mg/kg, 157 in Brain, iv 1.5 mg/kg, Mean
[2] = female, Sprague-Dawley (SD), rat, in vivo, iv, 1.5 mg/kg, 157 in Brain, iv 1.5 mg/kg, rat 1
[3] = female, Sprague-Dawley (SD), rat, in vivo, iv, 1.5 mg/kg, 157 in Brain, iv 1.5 mg/kg, rat 2
[4] = female, Sprague-Dawley (SD), rat, in vivo, iv, 1.5 mg/kg, 157 in Liver, iv 1.5 mg/kg, Mean
[5] = female, Sprague-Dawley (SD), rat, in vivo, iv, 1.5 mg/kg, 157 in Liver, iv 1.5 mg/kg, rat 1
[6] = female, Sprague-Dawley (SD), rat, in vivo, iv, 1.5 mg/kg, 157 in Liver, iv 1.5 mg/kg, rat 2
[7] = female, Sprague-Dawley (SD), rat, in vivo, iv, 1.5 mg/kg, iv 1.5 mg/kg, Mean, read-out: 157 plasma concentration
[8] = female, Sprague-Dawley (SD), rat, in vivo, iv, 1.5 mg/kg, iv 1.5 mg/kg, Rat 1, read-out: 157 liver concentration
[9] = female, Sprague-Dawley (SD), rat, in vivo, iv, 1.5 mg/kg, iv 1.5 mg/kg, Rat 1, read-out: 157 plasma concentration
[10] = female, Sprague-Dawley (SD), rat, in vivo, iv, 1.5 mg/kg, iv 1.5 mg/kg, Rat 2, read-out: 157 liver concentration
[11] = female, Sprague-Dawley (SD), rat, in vivo, iv, 1.5 mg/kg, iv 1.5 mg/kg, Rat 2, read-out: 157 plasma concentration
[12] = female, Sprague-Dawley (SD), rat, in vivo, po, 1.5 mg/kg, 157 in plasma, PO 1.5 mg/kg, rat 2
[13] = female, Sprague-Dawley (SD), rat, in vivo, po, 1.5 mg/kg, PO 1.5 mg/kg, Mean, read-out: 157 plasma concentration
[14] = female, Sprague-Dawley (SD), rat, in vivo, po, 1.5 mg/kg, PO 1.5 mg/kg, Rat 1, read-out: 157 plasma concentration
[15] = female, Sprague-Dawley (SD), rat, in vivo, po, 1.5 mg/kg, PO 1.5 mg/kg, Rat 2, read-out: 157 plasma concentration

With `CCCCCCCOC(=O)C1C2CCC(O2)C1C(=O)N1CCN(C)CC1` (centres unmarked) [Compound 157, 3-(4-Methylpiperazine-1-carbonyl)-7-oxa-bicyclo[2,2,1]heptane-2-carboxylic acid heptyl ester] the concentration at 1 h (female, SD, rat, in vivo, iv, 1.5 mg/kg, iv 1.5 mg/kg, Rat 2, read-out: 157 liver concentration) was 17.6 ng/g, the AUC (female, SD, rat, in vivo, po, 1.5 mg/kg, 157 po 1.5 mg/kg, read-out: AUC of 157 in plasma) was 3.2 ng·h/mL and the Cmax (female, SD, rat, in vivo, po, 1.5 mg/kg, 157 po 1.5 mg/kg, read-out: Cmax of 157 in plasma) was 6.14 ng/mL. It also gave an AUC(0-t) (female, SD, rat, in vivo, 157 iv 1.5 mg/kg, read-out: AUClast of 157 in plasma) of 47.2 ng·h/mL, a bioavailability (female, SD, rat, in vivo, 157 po vs iv 1.5 mg/kg, read-out: BA (bioavailability) of 157) of 6.98% and a Tmax (female, Sprague-Dawley (SD), in vivo, 157 in plasma, PO 1.5 mg/kg, rat 2) of 30 min. It also gave a Cmax (female, Sprague-Dawley (SD), rat, in vivo, iv, 1.5 mg/kg, 157 in Brain, iv 1.5 mg/kg, Mean, read-out: Cmax) of 60 ng/g, an MRT last [1] of 18.8 min and a half-life [1] of 9.72 min. It also gave a Cmax (female, Sprague-Dawley (SD), rat, in vivo, iv, 1.5 mg/kg, 157 in Brain, iv 1.5 mg/kg, rat 1, read-out: Cmax) of 60 ng/g, an MRT last [2] of 18.3 min and a half-life [2] of 9.18 min. The Cmax (female, Sprague-Dawley (SD), rat, in vivo, iv, 1.5 mg/kg, 157 in Brain, iv 1.5 mg/kg, rat 2, read-out: Cmax) was 60 ng/g, the MRT last [3] was 19.4 min and the half-life [3] was 10.2 min. For the same compound, the Cmax (female, Sprague-Dawley (SD), rat, in vivo, iv, 1.5 mg/kg, 157 in Liver, iv 1.5 mg/kg, Mean, read-out: Cmax) was 297 ng/g, the MRT last [4] was 35.3 min and the half-life [4] was 48.8 min. It also gave a Cmax (female, Sprague-Dawley (SD), rat, in vivo, iv, 1.5 mg/kg, 157 in Liver, iv 1.5 mg/kg, rat 1, read-out: Cmax) of 337 ng/g, an MRT last [5] of 31.9 min and a half-life [5] of 27.3 min. It also gave a Cmax (female, Sprague-Dawley (SD), rat, in vivo, iv, 1.5 mg/kg, 157 in Liver, iv 1.5 mg/kg, rat 2, read-out: Cmax) of 257 ng/g, an MRT last [6] of 38.8 min and a half-life [6] of 70.2 min. It also gave a concentration at 0.25 h [7] of 115 ng/mL, a concentration at 0.25 h [8] of 337 ng/g and a concentration at 0.25 h [9] of 116 ng/mL. For the same compound, the concentration at 0.25 h [10] was 257 ng/g, the concentration at 0.25 h [11] was 114 ng/mL and the concentration at 1 h [7] was 3.12 ng/mL. For the same compound, the concentration at 1 h [9] was 2.67 ng/mL, the concentration at 1 h [11] was 3.57 ng/mL and the concentration at 2 h (female, Sprague-Dawley (SD), rat, in vivo, iv, 1.5 mg/kg, iv 1.5 mg/kg, Mean, read-out: 157 liver concentration) was 8.06 ng/g. For the same compound, the concentration at 2 h [7] was 0.524 ng/mL, the concentration at 2 h [8] was 6.4 ng/g and the concentration at 2 h [9] was 0.491 ng/mL. The concentration at 2 h [10] was 9.72 ng/g, the concentration at 2 h [11] was 0.556 ng/mL and the AUC(0-inf) [12] was 3 ng·h/mL. The AUC (female, Sprague-Dawley (SD), rat, in vivo, po, 1.5 mg/kg, 157 in plasma, PO 1.5 mg/kg, rat 2, read-out: AUC) was 3 ng·h/mL, the Cmax (female, Sprague-Dawley (SD), rat, in vivo, po, 1.5 mg/kg, 157 in plasma, PO 1.5 mg/kg, rat 2, read-out: Cmax) was 6.35 ng/mL and the MRT last [12] was 54.2 min. It also gave a half-life [12] of 22.2 min, a concentration at 0.5 h (female, Sprague-Dawley (SD), rat, in vivo, po, 1.5 mg/kg, PO 1.5 mg/kg, Mean) of 6.14 ng/mL and a concentration at 0.5 h (female, Sprague-Dawley (SD), rat, in vivo, po, 1.5 mg/kg, PO 1.5 mg/kg, Rat 1) of 5.92 ng/mL. The concentration at 0.5 h (female, Sprague-Dawley (SD), rat, in vivo, po, 1.5 mg/kg, PO 1.5 mg/kg, Rat 2) was 6.35 ng/mL, the concentration at 1 h [13] was 1.37 ng/mL and the concentration at 1 h [14] was 1.48 ng/mL. The concentration at 1 h [15] was 1.26 ng/mL, the concentration at 2 h [13] was 0.249 ng/mL and the concentration at 2 h [14] was 0.303 ng/mL. For the same compound, the concentration at 2 h [15] was 0.194 ng/mL, the Tmax (female, Sprague-Dawley (SD), rat, in vivo, 157 in Liver, iv 1.5 mg/kg, Mean) was 15 min and the 157 brain concentration (iv 1.5 mg/kg, Rat 1) was “BLQ”. For the same compound, the 157 brain concentration (iv 1.5 mg/kg, Rat 2) was “BLQ” and the 157 liver concentration (iv 1.5 mg/kg, 10 hr, Rat 2) was “BLQ”.
